Assay results: patent US20140045937A1, “METHODS OF TREATING POLYCYSTIC OVARIAN SYNDROME USING CHLOROGENIC ACID” (Oculus Innovative Sciences, Inc., priority 2012, published 2014)

Assays:
[1] = tested on: PCOS and/or anovulation in female patients; test: GLUCOREIN beverage (chlorogenic acid and L-cysteine) in anovulatory female patients with PCOS symptoms attempting to become pregnant; type: in vivo, human; conditions: CLOMID added to GLUCOREIN regimen after three months; three patients with body mass index over 35; read after four months of treatment
Procedure: Ten female patients, between the ages of 25 and 37, each anovulatory, were evaluated. […] Chronic anovulation is a common cause of infertility. These patients were also attempting to become pregnant and presented with multiple symptoms of PCOS. Their diets were supplemented with GLUCOREIN medical food beverage (a powdered solid including the components set forth in Table 1 mixed in 8 ounces of water). Per instructions for use, the patients each consumed one eight-ounce serving of the GLUCOREIN beverage each day, typically in the morning hours.
After four months of treatment, with all ten patients continuing with the protocol, the results were as follows: […]

[2] = tested on: PCOS; conditions: variety of clinical trials, literature; cited from earlier work

SMILES	patients who tested positive for ovulation [1]	treatment or prevention of PCOS [2]
CCN(CC)CCOc1ccc(C(=C(Cl)c2ccccc2)c2ccccc2)cc1 [CLOMID, clomiphene]	none	–
CC(=O)N[C@@H](CS)C(=O)O [NAC, N-acetyl-L-cysteine]	–	shown to treat or prevent PCOS
